Data on 19 compounds can be found in patent publication US12391676B2 (H. LEE MOFFITT CANCER CENTER AND RESEARCH INSTITUTE, INC., priority 2018, dated 2025).

The structures appear in SMILES notation. Read-outs that look alike come from different tables or passages of the source.

One may read the IC50 as the concentration that inhibits the measured activity by half. By GI50 is commonly meant the concentration giving 50% growth inhibition.

In data set [1] the target is T1, BRD4 (Homo sapiens (Human), UniProt O60885). As to the kind of experiment: BRD4 DSF thermal shift (ΔTm). The data set is classed as binding. The note with it: for DSF ΔTm: Table 1; for BRD4 DSF (ΔTm): Table 2.
A further data set deals with BRD4-1 (Homo sapiens (Human), UniProt O60885). The data set is described as follows: Estimated BRD4-1 IC50. The following applies: Table 1. The class given is binding.
The target in a further data set is JAK2 (Homo sapiens (Human), UniProt O60674). The data set is described as follows: JAK2 IC50. The class given is biochemical.
A further data set deals with c-Myc. The following applies: background, literature; cited from earlier work.
Data set [2] deals with T1, BRD4. The data set is described as follows: BRD4 IC50. The data set is classed as binding. The note with it: Table 2.
A further data set deals with MM1.S cells. As to the kind of experiment: Antiproliferative activity, MM1.S cells. The class given is cell-based. The following applies: Homo sapiens; for GI50: Table 2, read-out: GI50 (MM1S); for IC50: Table 1 comments. As to the method:
Cellular activity of promising compounds is assessed using MM.1S and MV4-11 AML cells using c-Myc levels as biomarker (6-12 hr treatment) and antiproliferative activity (48-72 hr treatment) as described (Ciceri et al., Dual kinase-bromodomain inhibitors for rationally designed polypharmacology. Nat Chem Biol 2014).

In data set [3] the test system is UKE1 cells. As to the kind of experiment: Growth inhibition GI50, UKE1 cells. The data set is classed as cell-based.
For the next data set, the system named is BaF3-JAK2-VF cells. As to the kind of experiment: Growth inhibition GI50, BaF3-JAK2-VF cells. The class given is cell-based. The note with it: Table 1 comments.
The nature of data set [4]: Mouse microsome stability. The following applies: Table 1 comments; meaning of % not stated. The class given is in vitro ADME.
Another data set has as its system SET2 cells. The data set is described as follows: Growth inhibition GI50, SET2 cells. The class given is cell-based. The note with it: Homo sapiens, SET-2; Table 1 comments; unit printed only for the neighbouring values in the cell.
For data set [5], the system named is UKE1 cells. The data set is described as follows: Drug persistence of UKE1 cells under escalating drug concentration. The following applies: for development of drug persistence: UKE1 cells started at GI20, concentration doubled if growth >90% of DMSO; for final drug concentration at the end of the experiment: drug persistence experiment. The data set is classed as cell-based. As to the method:
UKE1 cells were incubated with DMSO, MA9-060, fedratinib, or ruxolitinib at their respective GI20 concentrations. Cell growth was compared to DMSO. Cells were passed back to the same density after counting. Drug concentration was doubled if growth was >90% of DMSO. Fold GI20 is plotted vs time, with drug persistence represented by upward steps of the lines. The final MA9-060, ruxolitinib, and fedratinib concentrations at the end of the experiment were 0.15, 0.6 and 2.4 uM, respectively. Fedratinib-treated cells lost complete viability after about 30 days (after 3 weeks in 2.4 uM).

Where [6] appears, read: UKE1, Table 2, read-out: GI50 (UKE1).
Setting [7] is: UKE1, Table 1 comments, read-out: GI50 (UKE1 cells).

Chain of JAK2 (O60674 whole entry): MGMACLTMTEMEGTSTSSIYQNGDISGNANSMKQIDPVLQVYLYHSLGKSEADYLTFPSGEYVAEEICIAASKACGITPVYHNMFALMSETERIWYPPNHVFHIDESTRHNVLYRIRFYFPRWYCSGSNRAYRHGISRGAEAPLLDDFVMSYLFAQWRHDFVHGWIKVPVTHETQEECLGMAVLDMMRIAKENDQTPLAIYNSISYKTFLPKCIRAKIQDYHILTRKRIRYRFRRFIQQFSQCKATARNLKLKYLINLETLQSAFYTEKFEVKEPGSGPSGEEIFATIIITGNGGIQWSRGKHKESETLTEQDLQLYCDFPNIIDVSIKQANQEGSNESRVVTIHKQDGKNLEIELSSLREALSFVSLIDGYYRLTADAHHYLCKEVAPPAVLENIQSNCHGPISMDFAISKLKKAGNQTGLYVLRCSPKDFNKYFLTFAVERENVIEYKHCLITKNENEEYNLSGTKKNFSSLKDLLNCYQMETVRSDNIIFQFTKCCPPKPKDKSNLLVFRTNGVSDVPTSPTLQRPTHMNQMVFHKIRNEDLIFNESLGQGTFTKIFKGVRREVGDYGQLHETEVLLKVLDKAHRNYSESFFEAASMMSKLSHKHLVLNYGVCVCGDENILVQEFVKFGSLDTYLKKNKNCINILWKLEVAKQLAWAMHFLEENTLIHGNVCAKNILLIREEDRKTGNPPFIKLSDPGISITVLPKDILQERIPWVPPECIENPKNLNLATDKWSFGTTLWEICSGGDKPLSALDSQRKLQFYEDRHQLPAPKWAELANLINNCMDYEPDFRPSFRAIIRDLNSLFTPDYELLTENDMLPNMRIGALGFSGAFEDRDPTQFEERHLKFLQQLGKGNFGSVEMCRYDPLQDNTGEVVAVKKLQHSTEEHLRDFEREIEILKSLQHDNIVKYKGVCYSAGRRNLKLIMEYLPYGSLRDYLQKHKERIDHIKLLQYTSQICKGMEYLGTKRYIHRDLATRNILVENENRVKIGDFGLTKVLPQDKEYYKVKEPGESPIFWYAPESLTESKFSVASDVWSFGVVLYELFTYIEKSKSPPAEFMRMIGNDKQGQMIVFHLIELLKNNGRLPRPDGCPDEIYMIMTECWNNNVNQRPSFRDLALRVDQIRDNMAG

Regarding `Cc1cnc(Nc2ccc(N3CCNCC3)c(F)c2)nc1Nc1ccc(Cl)c(NS(=O)(=O)C(C)(C)C)c1`, on BRD4 [1], the “DSF ΔTm” value was 13 ± 0.05 °C. Besides, the IC50 on BRD4-1 is 1 nM; on JAK2 (Table 1 comments, n = 2), 2.73 nM.
Consider `Cc1cnc(Nc2ccc(N3CCN(CCCN)CC3)c(F)c2)nc1Nc1ccc(Cl)c(NS(=O)(=O)C(C)(C)C)c1`, for which the “DSF ΔTm” value on BRD4 [1] worked out at 11 ± 0.02 °C. Moreover, the IC50 on BRD4-1 was 4.6 nM.
Take `Cc1cnc(Nc2ccc(N3CCN(CCCN)CC3)c(F)c2)nc1Nc1cccc(NS(=O)(=O)C(C)(C)C)c1`: at BRD4 [1], the “DSF ΔTm” value worked out at 9.4 ± 0.09 °C. Besides, on BRD4-1, the IC50 is 15.7 nM.
With `CC[C@@H]1C(=O)N(C)c2cnc(Nc3ccc(C(=O)NC4CCN(C)CC4)cc3OC)nc2N1C1CCCC1` [BI2536], the “downregulation of c-Myc in MM.1S cells” value in the data set on c-Myc is listed as “strong downregulation”.
With `Cc1cnc(Nc2ccc(C3CCN(C)CC3)cc2)nc1Nc1ccc(Cl)c(NS(=O)(=O)C(C)(C)C)c1` [MA9-050, N-(2-Chloro-5-((5-methyl-2-((4-(1-methylpiperidin-4-yl)phenyl)amino)pyrimidin-4-yl)amino)phenyl)-2-methylpropane-2-sulfonamide], the “BRD4 DSF (ΔTm)” value at BRD4 [1] worked out at 12.3 °C. The IC50 at BRD4 [2] turned out to be 143 nM; on JAK2 (Table 2) it was 8.2 nM. For the same compound, the GI50 in the data set with MM1.S cells turned out to be 110 nM; in the data set with UKE1 cells [3] (setting [6]) it was 310 nM.
Consider `Cc1cnc(Nc2cc(F)cc(N3CCN(C)CC3)c2)nc1Nc1ccc(Cl)c(NS(=O)(=O)C(C)(C)C)c1` [MA9-062, N-(2-Chloro-5-((2-((3-fluoro-5-(4-methylpiperazin-1-yl)phenyl)amino)-5-methylpyrimidin-4-yl)amino)phenyl)-2-methylpropane-2-sulfonamide], for which, on BRD4 [1], the “BRD4 DSF (ΔTm)” value was 11.3 °C. Also, the IC50 on BRD4 [2] was 49 nM; on JAK2 (Table 2), 17 nM. Moreover, the GI50 with MM1.S cells was determined as 160 nM.
Consider `Cc1cnc(Nc2ccc(C3CCN(C)CC3)c(F)c2)nc1Nc1ccc2c(c1)N(S(=O)(=O)C(C)(C)C)CC2` [MA9-086, N4-(1-(Tert-butylsulfonyl)indolin-6-yl)-N2-(3-fluoro-4-(1-methylpiperidin-4-yl)phenyl)-5-methylpyrimidine-2,4-diamine], for which, on BRD4 [1], the “BRD4 DSF (ΔTm)” value was determined as 13.4 °C. The IC50 worked out at 6.4 nM against BRD4 [2] and 1.1 nM against JAK2 (Table 2). In the data set with MM1.S cells, the GI50 turned out to be 194 nM.
Consider `Cc1cnc(Nc2cc(F)c(C3CCN(C)CC3)cn2)nc1Nc1ccc(F)c(NS(=O)(=O)C(C)(C)C)c1` [PN2-089, N-(2-Fluoro-5-((2-((4-fluoro-5-(1-methylpiperidin-4-yl)pyridin-2-yl)amino)-5-methylpyrimidin-4-yl)amino)phenyl)-2-methylpropane-2-sulfonamide], for which the “BRD4 DSF (ΔTm)” value at BRD4 [1] amounted to 13.4 °C. In addition, the GI50 in the data set with MM1.S cells came to 72 nM; in the data set with UKE1 cells [3] (setting [6]) it was 134 nM.
With `Cc1cnc(Nc2cc(F)c(C3CCN(C)CC3)cn2)nc1Nc1ccc2c(c1)N(S(=O)(=O)C(C)(C)C)CC2` [PN2-128, N^4-(1-(tert-Butylsulfonyl)indolin-6-yl)-N^2-(4-fluoro-5-(1-methylpiperidin-4-yl)pyridin-2-yl)-5-methylpyrimidine-2,4-diamine], the “BRD4 DSF (ΔTm)” value on BRD4 [1] amounted to 12.8 °C. In addition, the results for the GI50 in the data set on MM1.S cells and with UKE1 cells [3] (setting [6]) were 186 nM and 207 nM, respectively.
For `Cc1cnc(Nc2cc(F)c(C3CCN(C)CC3)c(F)c2)nc1Nc1ccc2c(c1)N(S(=O)(=O)C(C)(C)C)CC2` [PN2-129, N^4-(1-(tert-butylsulfonyl)indolin-6-yl)-N^2-(3,5-difluoro-4-(1-methylpiperidin-4-yl)phenyl)-5-methylpyrimidine-2,4-diamine], in that order: 13.8 °C, 152 nM and 222 nM.
`Cc1cnc(Nc2ccc(N3CCN(C)CC3)c(F)c2)cc1Nc1cccc(NS(=O)(=O)C(C)(C)C)c1` [SY3-005, N-(3-((2-((3-Fluoro-4-(4-methylpiperazin-1-yl)phenyl)amino)-5-methylpyridin-4-yl)amino)phenyl)-2-methylpropane-2-sulfonamide]: at BRD4 [1], the “BRD4 DSF (ΔTm)” value came out at 6.0 °C. For the same compound, the IC50 against BRD4 [2] was 3960 nM; on JAK2 (Table 2), greater than 1000 nM. In addition, the GI50 was 3310 nM with MM1.S cells and 5300 nM with UKE1 cells [3] (setting [6]).
Consider `Cc1cnc(Nc2ccc(C3CCN(C)CC3)cc2)nc1Nc1cccc(NS(=O)(=O)C(C)(C)C)c1` [SY3-034, 2-Methyl-N-(3-((5-methyl-2-((4-(1-methylpiperidin-4-yl)phenyl)amino)pyrimidin-4-yl)amino)phenyl)propane-2-sulfonamide], for which, on BRD4 [1], the “BRD4 DSF (ΔTm)” value is 10.6 °C. In addition, the GI50 was 91 nM in the data set with MM1.S cells and 220 nM in the data set on UKE1 cells [3] (setting [6]). The compound further showed an IC50 against JAK2 (Table 2) of 1.6 nM.
Consider `Cc1cnc(Nc2ccc(C3CCN(C)CC3)c(F)c2)nc1Nc1cccc(NS(=O)(=O)C(C)(C)C)c1` [SY3-038, N-(3-((2-((3-Fluoro-4-(1-methylpiperidin-4-yl)phenyl)amino)-5-methylpyrimidin-4-yl)amino)phenyl)-2-methylpropane-2-sulfonamide], for which, at BRD4 [1], the “BRD4 DSF (ΔTm)” value worked out at 12.3 °C. Moreover, the IC50 came to 87 nM at BRD4 [2] and 0.7 nM against JAK2 (Table 2). For the same compound, the GI50 with UKE1 cells [3] (setting [6]) amounted to 64 nM.
Consider `Cc1cnc(Nc2cc(F)cc(N3CCN(C)CC3)c2)nc1Nc1cccc(NS(=O)(=O)C(C)(C)C)c1` [SY3-040, N-(3-((2-((3-Fluoro-5-(4-methylpiperazin-1-yl)phenyl)amino)-5-methylpyrimidin-4-yl)amino)phenyl)-2-methylpropane-2-sulfonamide], for which the “BRD4 DSF (ΔTm)” value on BRD4 [1] came out at 11.1 °C. Besides, the IC50 amounted to 127 nM against BRD4 [2] and 3.1 nM against JAK2 (Table 2). The GI50 with MM1.S cells was 220 nM.
On to `Cc1cnc(Nc2ccc(N3CCN(C)CC3)cc2)nc1Nc1cccc(S(=O)(=O)NC(C)(C)C)c1` [TG101209], for which, in the data set with c-Myc, the “downregulation of c-Myc in MM.1S cells” value is given as “strong downregulation”.
Take `Cc1cnc(Nc2ccc(C3CCN(C)CC3)cc2)nc1Nc1ccc(Cl)c(NS(=O)(=O)C(C)(C)C)c1` [drawing 11]: the “DSF ΔTm” value on BRD4 [1] amounted to 12.3 °C. Also, the 50% growth inhibitory concentration (GI50) in the data set with BaF3-JAK2-VF cells was determined as 99 nM; with UKE1 cells [3] (Table 1 comments, read-out: GI50 (UKE1 cells)), 340 nM; in the data set with UKE1 cells [3] (setting [7]) it was 280 nM; with SET2 cells, 240 nM. The compound also yielded an IC50 with MM1.S cells of 110 nM. Besides, the Mouse microsome in [4] was determined as 81%.
For `Cc1cnc(Nc2ccc(C3CCN(C)CC3)cc2)nc1Nc1cccc(NS(=O)(=O)C(C)(C)C)c1` [drawing 12], the “DSF ΔTm” value at BRD4 [1] was found to be 10.6 °C. Moreover, 91 nM corresponded to half-maximal inhibition in the data set with MM1.S cells (IC50). The GI50 in the data set with UKE1 cells [3] (setting [7]) came to 220 nM.
Take `Cc1cnc(Nc2ccc(OCCN3CCCC3)cc2)nc1Nc1cccc(S(=O)(=O)NC(C)(C)C)c1` [fedratinib]: the “development of drug persistence” value in the data set with UKE1 cells [5] was “persistently grew in increasing concentrations”. In the data set with UKE1 cells [5] (UKE1 cells, after 3 weeks in 2.4 uM), the “time until treated cells lost complete viability” value is reported as “about 30 days”. For the same compound, the “final drug concentration at the end of the experiment” value in the data set with UKE1 cells [5] (UKE1 cells) amounted to 2.4 µM.
Take `N#CC[C@H](C1CCCC1)n1cc(-c2ncnc3[nH]ccc23)cn1` [ruxolitinib]: the “development of drug persistence” value in the data set with UKE1 cells [5] is given as “persistently grew in increasing concentrations”. The “final drug concentration at the end of the experiment” value in the data set with UKE1 cells [5] (UKE1 cells) turned out to be 0.6 µM.
